Data from US8343512B2, “Treatment of allergic conditions using a composition containing synthetic adjuvant” (Infectious Disease Research Institute, priority 2006, dated 2013).

Assays:
Human whole blood cells = test: GLA stimulation of human blood cells, IL-1β ELISA; type: cell-based; details: 16 hours
Procedure: Human whole blood cells were cultured with various adjuvant concentrations of either synthetic GLA (Avanti Polar Lipids, Inc., Alabaster, Ala.; product number 699800) or the natural product MPL® (GSK Biologicals, Rixensart, Belgium), achieved by diluting an aqueous adjuvant preparation in cell culture medium (DMEM containing 10% fetal bovine serum). Blood cells were maintained for 16 hours at 37° C. in a humidified atmosphere containing 5% CO2, prior to collection of cell-free culture supernatants. Supernatant fluids were assayed for soluble human cytokine IL-1β using specific sandwich ELISA assay kit (eBiosciences, San Diego, Calif.) according to the manufacturer's instructions.

Influenza = test: Fluzone vaccine with GLA-AF or GLA-SE in mice, anti-Fluzone IgG ELISA and HAI; type: in vivo, Mice (Balb/c); details: GLA 20 μg in aqueous or stable oil formulation; compared to Fluzone alone
Procedure: Mice (three Balb/c animals per group) were immunized twice at three-week intervals with the Fluzone vaccine (Sanofi-Aventis, Swiftwater, Pa., at 1/25 (20 μl) and 1/250 (2 μl) of the human dosage, alone, or formulated in (i) an aqueous emulsion containing GLA (Avanti Polar Lipids, Inc., Alabaster, Ala.; product number 699800; 20 μg per animal for each immunization) according to the procedure used in Example 1 above (“GLA-AF”), or (ii) a stable emulsion containing GLA (Avanti Polar Lipids, Inc., Alabaster, Ala.; product number 699800; 20 μg per animal for each immunization) according to the procedure used in Example 3 above (“GLA-SE”). Sera were collected by bleeding animals one week after each immunization, and serum levels of total IgG antibodies specific for Fluzone were examined by ELISA according to published methods (Id.). Serum levels of virus neutralizing antibodies were also examined by Hemagglutination Inhibition Assay (HAI) according to published methods.

USP Rabbit Pyrogen Test = details: in vivo
Procedure: GLA and MPL were evaluated for pyrogenicity/toxicity using the United States Pharmacopeial (USP) rabbit pyrogen test method. GLA was tested at the same doses and conditions commonly used for MPL.

Leish-110f antigen = Leish-110f antigen with different amounts of GLA-SE in mice, IgG1/IgG2a ELISA; type: in vivo, Mice (Balb/c)
Procedure: Mice (three Balb/c animals per group) were immunized three times at two-week intervals with the Leish-110f antigen (10 μg per animal for each immunization) formulated in a stable emulsion containing different amounts of GLA (Avanti Polar Lipids, Inc., Alabaster, Ala.; product number 699800; 40, 20, 5, or 1 μg per animal for each immunization according to the procedure used in Example 3 above, GLA-SE). Sera were collected by bleeding animals one week after the first immunization, and serum levels of IgG1 and IgG2a antibodies specific for Leish-110f were examined by ELISA according to published methods (Id.).

[1] = system: Dendritic cells derived from purified blood CD14+ monocytes; test: GLA stimulation of human dendritic cells, CD86 surface expression by flow cytometry; type: cell-based
Source text: Dendritic cells were derived from purified blood CD14+ monocytes following a published protocol. Various adjuvant concentrations of either synthetic GLA (Avanti Polar Lipids, Inc., Alabaster, Ala.; product number 699800) or the natural product MPL® (GSK Biologicals, Rixensart, Belgium) were achieved by diluting an aqueous adjuvant preparation in cell culture medium (RPMI containing 5% human serum). Prior to collection and analysis of the expression of activation markers, cells were maintained for 44 hours at 37° C. in a humidified atmosphere containing 5% CO2. Expression levels of the costimulatory molecule CD86 at the surface of DC were used as an indicator of cell activation and measured by flow cytometry on a LSRII instrument (BD Biosciences, San Jose, Calif.) using CD86-specific fluorochrome-labeled antibody (eBiosciences, San Diego, Calif.) according to the manufacturer's instructions.

ML0276 antigen = ML0276 antigen with CpG, Imiquimod, GLA-SE or mix in mice, IFN-γ CD4+ T cell ICS; type: in vivo, Mice (C57BL/6); details: adjuvant given with ML0276 antigen 10 μg; saline background 0.04%
Procedure: Mice (three C57BL/6 animals per group) were immunized three times at three-week intervals with the ML0276 antigen (10 μg per animal for each immunization) adjuvanted with aqueous formulations containing CpG (CpG1826, Coley Pharmaceutical, 25 μg per animal for each immunization), or Imiquimod (IMQ) (3M Pharma, 25 μg per animal for each immunization), or GLA (Avanti Polar Lipids, Inc., Alabaster, Ala.; product number 699800; 25 μg per animal for each immunization, according to the procedure used in Example 3 above, GLA-SE), a mix of the three, or saline as negative control. Three weeks after the last injection, mice were sacrificed and spleen collected to analyze CD4+ T cell-dependent IFN-γ cytokine responses to in vitro ML0276 antigen stimulation by ICS and Flow cytometry according to published methods. Expression of IFN-γ cytokine has been associated with protective TH1 responses against M. leprae infection.

ID83 antigen = ID83 antigen with GLA-SE, GLA/CpG-SE or GLA/GDQ-SE in mice, intracellular cytokine staining; type: in vivo, Mice (C57BL/6); details: GLA/GDQ-SE or GLA/CpG-SE versus GLA-SE

In the case of `CCCCCCCCCCCCCC(=O)O[C@H](CCCCCCCCCCC)CC(=O)O[C@@H]1[C@@H](NC(=O)C[C@@H](CCCCCCCCCCC)OC(=O)CCCCCCCCCCC)[C@H](OC[C@H]2O[C@H](O)[C@H](NC(=O)C[C@H](O)CCCCCCCCCCC)[C@@H](OC(=O)C[C@H](O)CCCCCCCCCCC)[C@@H]2O)O[C@H](CO)[C@H]1OP(=O)(O)O` [GLA, glucopyranosyl lipid adjuvant], the “concentration equivalent in potency (IL-1β secretion)” value (Human whole blood cells) is reported as 92 nM, the “Total IgG and neutralizing antibody titers in response to Fluzone vaccination” value (Influenza) is reported as “enhanced” and the “pyrogenicity/toxicity, USP<151> requirements” value (USP Rabbit Pyrogen Test) is reported as “passed the USP<151> requirements for the absence of pyrogens”. The “Leish-110f-specific IgG1 and IgG2a antibody titers” value (Leish-110f antigen; GLA 40, 20, 5, or 1 μg in GLA-SE, one week after the first immunization) was “GLA dose-dependent”, the “predominant Leish-110f-specific antibody isotype” value (Leish-110f antigen; all concentrations of GLA tested) was “Predominance of TH1 associated IgG2a antibody” and the “active at concentrations lower compared to MPL for human dendritic cell maturation” value ([1]; CD86 expression) was “at least 10 fold”. For the same molecule, the “CD86 expression, GLA versus MPL” value ([1]; additional three donors, 1000 ng/ml to 1 ng/mL) was “lower doses of GLA achieved higher CD86 expression than MPL”.

In the case of `CC(C)Cn1cnc2c(N)nc3ccccc3c21` [IMQ, Imiquimod], the “frequency of ML0276 specific IFN-γ+ CD4+ T cells (positive cells)” value (ML0276 antigen) is reported as 0.11%.

For `CCNCc1nc2c(N)nc3ccccc3c2n1CC(C)(C)O` [GDQ, Gardiquimod], the “frequency of ID83 specific cytokine producing T cells on addition of a second TLR ligand to ID83+GLA-SE” value (ID83 antigen) was “further increased”.
